Test results taken from patent US20100168112A1, “2-Substituted and 4-substituted aryl nitrone compounds” (RENOVIS, INC., priority 2004, published 2010).
Like-named read-outs stand apart in the source and are kept apart here.

How the values were obtained:
[1] = Pharmacokinetic evaluation following intravenous and oral administration in rats; type: in vivo; conditions: male, Sprague-Dawley; for Cmax / Tmax / bioavailability: 5 mg/kg; for Cmax: rat plasma; for Cmax / Tmax: oral gavage, 2 mg/mL at 2.5 mL/kg; for clearance / Vd / Tmax / bioavailability / half-life: plasma, rat; for clearance / Vd / half-life: 1 mg/kg; for clearance / Vd: intravenous administration, 1 mg/mL at 1.0 mL/kg; for clearance: read-out: CI (clearance) (converted); for Vd: read-out: Vd (volume of distribution); for bioavailability: po 2 mg/mL at 2.5 mL/kg vs iv 1 mg/mL at 1.0 mL/kg, dose-normalized, read-out: F (%) oral bioavailability; for half-life: intravenous, read-out: T1/2 elimination half life (converted)
Method in brief: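 Male Sprague-Dawley rats, fasted, dosed iv (1 mg/mL formulation, 1.0 mL/kg, jugular or tail vein) or by oral gavage (2 mg/mL suspension, 2.5 mL/kg). Plasma sampled from 2 min to 480 min, some to 24 h, and quantified by LC-MS/MS (MRM). Parameters from noncompartmental analysis.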

[2] = Brain penetration after single oral dose in rats; type: in vivo; conditions: Sprague-Dawley, rat, single oral dose (compound 26 5 mg/kg, 62 15 mg/kg, 20, 63 and 66 50 mg/kg), at or near Tmax
Experimental: Nitrone compounds of this invention were formulated individually as suspensions and administered as a single dose to Sprague-Dawley rats via oral gavage (compound 26 at 5 mg/kg, compound 62 at 15 mg/kg, compounds 20, 63 and 66 at 50 mg/kg). Plasma samples were obtained at or near Tmax projected at the given dose for each compound and the animals were euthanized using carbon dioxide. Immediately following euthanization, cerebrospinal fluid (CSF) was obtained by cisternal puncture of the atlanto-occipital membrane and drawn from the magnum cisternum. The brain was first perfused intracardially with ˜150 mL of ice-cold 0.1 M Phosphate Buffered Saline (PBS) at pH7.4. Following the removal of the dura, the brain was weighed. The brain was then dissected into smaller pieces and rinsed twice with ˜10 mL PBS. The brain, CSF, and plasma samples were frozen on dry ice and stored at −80° C. before analysis. CSF and plasma samples were subjected to a protein precipitation method prior to LC/MS/MS analysis. Blank rat plasma and CSF were used accordingly for diluting the samples when needed. Bioanalytical standard curves were prepared by spiking a stock solution of the nitrone compound to blank rat plasma or CSF to achieve a quantitation curve range and analyzed the standards in the same manner as the samples. Brain samples underwent homogenization in 2 mL water and liquid-liquid extraction with ethyl acetate three times. The combined organic phase for each sample was evaporated under a stream of nitrogen at 40° C. and the residues were reconstituted with an appropriate amount of mobile phase B (referring to LC/MS/MS method section). A bioanalytical standard curve for brain analysis was prepared by spiking 100 μL of stock solution directly into sliced blank rat brain purchased from Pelfreez. The spiked brains then underwent the same processing procedures for the dosed samples.
The reconstituted samples were vortexed and incubated to fully dissolve the analytes. The samples were centrifuged, and then further diluted with Mobile phase B if necessary before LC/MS/MS analysis. Nitrone compound levels in the brain were calculated based on the measured concentration, the volume of reconstitution and brain weight to yield a unit of ng (of compound) per g of brain. To calculate the brain/plasma ratio (w/v), it was assumed that 1 g of brain tissue takes approximately 1 mL of volume.

[3] = Microsomal stability in human liver microsomes; type: in vitro ADME; conditions: NADPH, 37° C.
Method in brief: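 Compound (~500 ng/ml) incubated at 37°C for up to 30 min with 0.5 mg/ml microsomal protein and 1 mM NADPH in 0.1 M PBS pH7.4, after 3–5 min preincubation without NADPH. Sprague-Dawley rat or human microsomes; acetonitrile-quenched timepoints analysed by LC/MS/MS for half-life or percent remaining.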

[4] = CSF and plasma, read-out: CSF/Plasma (%)
[5] = brain and plasma, 1 g brain assumed 1 mL, read-out: Brain/Plasma (%)

Structure (SMILES)	Cmax [1]	clearance [1]	Vd [1]	Tmax [1]	bioavailability [1]	half-life [1]	Kp [2, 4]	Kp [2, 5]	% of Nitrone Remaining at 30 min (Human) [3]
CC(C)(C)/[N+]([O-])=C/c1ccc(S(=O)(=O)Nc2cccnc2)cc1 [Compound 26, N-(tert-Butyl)-C-[4-(pyridin-3-ylsulfamoyl)phenyl]nitrone]	27300 ng/mL	0.167 mL/min/kg	0.09 L/kg	25.2 min	43.4%	262 min	0.0012	0.0056	
CC(C)(C)/[N+]([O-])=C/c1ccc(S(N)(=O)=O)cc1 [Compound 20, N-(tert-Butyl)-C-[4-(sulfamoyl)phenyl]nitrone]	796 ng/mL	12.8 mL/min/kg	4.08 L/kg	22.2 min	55.4%	220 min	0.144	0.229	
CC(C)(C)/[N+]([O-])=C/c1ccc(S(=O)(=O)N2CCOCC2)cc1 [Compound 23, N-(tert-Butyl)-C-[4-(morpholine-4-sulfonyl)phenyl]nitrone]	1120 ng/mL	28 mL/min/kg	3.78 L/kg	25.2 min	65.3%	94.8 min			

Next, values leading:

Cmax [1]	clearance [1]	Vd [1]	Tmax [1]	bioavailability [1]	half-life [1]	Kp [2, 4]	Kp [2, 5]	% of Nitrone Remaining at 30 min (Human) [3]	Structure (SMILES)
4630 ng/mL	1 mL/min/kg	0.53 L/kg	24.6 min	63.4%	349 min	0.786	0.625	100%	CC(C)(C)/[N+]([O-])=C/c1ccc(S(C)(=O)=O)cc1 [Compound 62, N-tert-Butyl-C-[4-(methanesulfonyl)phenyl]nitrone]
4730 ng/mL	3 mL/min/kg	0.63 L/kg	60 min	70.3%	143 min	0.936	0.224		CC(C)(C)/[N+]([O-])=C/c1ccccc1S(C)(=O)=O [Compound 66, N-tert-Butyl-C-(2-methanesulfonylphenyl)nitrone]
4130 ng/mL	3.17 mL/min/kg	0.45 L/kg	45 min	95.9%	99.6 min	0.336	0.189	99%	CC(C)(C)/[N+]([O-])=C/c1ccc(S(C)(=O)=O)cc1S(C)(=O)=O [Compound 63, N-tert-Butyl-C-(2,4-bis-methanesulfonylphenyl)nitrone]
2490 ng/mL	13.8 mL/min/kg	0.67 L/kg	39.6 min	91.3%	33 min			100%	CCS(=O)(=O)c1ccc(/C=[N+](\[O-])C(C)(C)C)c(S(=O)(=O)CC)c1 [Compound 64, N-tert-Butyl-C-(2,4-bis-ethanesulfonylphenyl)nitrone]
